From patent US4200631A, “Treating mammalian subject sensitive to indomethacin ulcerogenisis” (priority 1978, dated 1980)
Where “and” joins values, the source holds several entries; their conditions need not be identical. Identical values can stand only once. Entries after “also recorded” stand apart in the source; their conditions may differ. Like-named read-outs stand apart in the source and are kept apart here.

What was measured:
[1] = rat, in vivo
[2] = Antiphlogistic effect, carrageenin-oedema test (Series 1, Table 3)
Description: The antiphlogistic effects were studied on Wistar rats of both sexes, animal subjects found to be particularly prone to indomethacin ulcerogenisis, each weighing 100 to 150 g. The animals were starved for 24 hours, and then 0.1 ml portions of a 1% carrageenin solution were injected under mild ether anaesthesia into the plantar region of one of the hind paws in order to provoke inflammation (oedema). The antiphlogistic agent or a combination thereof was introduced into the stomach of the animals via a stomach tube immediately before injecting the carrageenin solution. 4 hours after this treatment the animals were sacrificed, and both hind paws were amputated above the ankles. The paws were weighed, and the oedema weight was calculated from the weight difference of the treated and untreated paws.

[3] = test system: prostaglandin synthesis; conditions: listed as Na-salicylate; cited from earlier work
[4] = rat, in vivo; for ED50 at 180 min: po
[5] = rat, in vivo; for Analgesic ED50 / Therapeutical index LD50/ED50 (C): po
[6] = in vivo; conditions: rat, po
[7] = Gastric ulcerogenic side-effects, starved rats (Series 1, Tables 1 and 2); conditions: for No. of ulcer/stomach / Ulcer-free animals % / Ulcer-free animals No.: 4 h
[8] = in vivo; conditions: rat, po; remark: listed apart in the source
[9] = treated subsequently with Na-salicylate; cited from earlier work
[10] = general statement; cited from earlier work
[11] = rat, in vivo; remark: listed apart in the source
[12] = 3-day gastrointestinal side-effect test on non-starved animals (Table 4); type: in vivo, rats
Description: In the following tests animals treated for 3 days with various combinations of indomethacin and sodium salicylate were examined. The non-starved test animals were treated orally for 3 days with compositions containing 20 mg/kg of indomethacin and increasing amounts of sodium salicylate.

[13] = in vivo; conditions: rat, po; remark: listed apart in the source
[14] = in vivo; conditions: rat, po; remark: listed apart in the source
[15] = indomethacin 3 × 20 mg/kg p.o. alone

O=C(O)c1cccnc1Nc1cccc(C(F)(F)F)c1 [Niflumic acid]
ulcerogenic side-effects when administered together with sodium salicylate [1]: can also be antagonized effectively | main antiphlogistic effects when administered together with sodium salicylate [2]: remain unchanged, or even the antiphlogistic effects of the two active agents are superimposed

CC(=O)Oc1ccccc1C(=O)O [Aspirin, acetylsalicylic acid]
ulcerogenic side-effects when administered together with sodium salicylate [1]: can also be antagonized effectively | main antiphlogistic effects when administered together with sodium salicylate [2]: remain unchanged, or even the antiphlogistic effects of the two active agents are superimposed

O=C([O-])c1ccccc1O.[Na+] [Sodium salicylate]
inhibition of prostaglandin synthesis [3]: except Na-salicylate; also recorded: practically ineffective as a prostaglandin inhibitor | ED50 at 180 min [4]: 320 mg/kg | Analgesic ED50 [5]: 513 mg/kg | Therapeutical index LD50/ED50 (C) [5]: 4.6 | LD50 [6]: 2400 mg/kg | No. of ulcer/stomach ([7]; 50 mg/kg p.o.): 0.1 ulcer/stomach | Ulcer-free animals % ([7]; 50 mg/kg p.o.): 82% | Ulcer-free animals No. ([7]; 50 mg/kg p.o.): 37 No. | No. of ulcer/stomach ([7]; 100 mg/kg p.o.): 0.1 ulcer/stomach | Ulcer-free animals % ([7]; 100 mg/kg p.o.): 96% | Ulcer-free animals No. ([7]; 100 mg/kg p.o.): 27 No. | No. of ulcer/stomach ([7]; 200 mg/kg p.o.): 1.2 ulcer/stomach | Ulcer-free animals % ([7]; 200 mg/kg p.o.): 50% | Ulcer-free animals No. ([7]; 200 mg/kg p.o.): 37 No. | No. of ulcer/stomach ([7]; 400 mg/kg p.o.): 1.1 ulcer/stomach | Ulcer-free animals % ([7]; 400 mg/kg p.o.): 71% | Ulcer-free animals No. ([7]; 400 mg/kg p.o.): 32 No. | gastrointestinal hemorrhagic or ulcerogenic side-effects of other non-steroidal antiphlogistic agents, specifically indomethacin ([7]; Series 1 discussion): antangonizes the gastrointestinal hemmorhagic or ulcerogenic side-effects | selectivity ratio [8]: 7.5 | Oedema-inhibiting effect % ([2]; sodium salicylate 50 mg/kg p.o. alone): 15% | Oedema-inhibiting effect % ([2]; sodium salicylate 100 mg/kg p.o. alone): 43%

COc1ccc2c(c1)c(CC(=O)O)c(C)n2C(=O)c1ccc(Cl)cc1 [Indomethacin]
reduction of indomethacin blood levels [9]: 30-50% | Inhibition of oedema, 3rd day, left (challenged) foot (daily dose 0.65 mg/kg p.o.): 26.7 percentage of control | Inhibition of oedema, 21st day, left foot (daily dose 0.65 mg/kg p.o.): 46.6 percentage of control | Inhibition of oedema, 21st day, right foot (daily dose 0.65 mg/kg p.o.): 47.2 percentage of control | Inhibition of oedema, 3rd day, left (challenged) foot (daily dose 1.25 mg/kg p.o.): 36.3 percentage of control | Inhibition of oedema, 21st day, left foot (daily dose 1.25 mg/kg p.o.): 46.7 percentage of control | Inhibition of oedema, 21st day, right foot (daily dose 1.25 mg/kg p.o.): 35.6 percentage of control | Inhibition of oedema, 3rd day, left (challenged) foot (daily dose 2.50 mg/kg p.o.): 36.8 percentage of control | Inhibition of oedema, 21st day, left foot (daily dose 2.50 mg/kg p.o.): 58.0 percentage of control | Inhibition of oedema, 21st day, right foot (daily dose 2.50 mg/kg p.o.): 72.6 percentage of control | ulcerating potency among non-steroid antiinflammatory agents [10]: most potent ulcerating compound | Inhibition of oedema 30 min following carrageenin [4]: 23.6 and 42.3 and 42.7 | Inhibition of oedema 180 min following carrageenin [4]: 30.5 and 53.0 and 53.4 | Relative intestinal toxicity IUD50/ED50 (A) [4]: 5.8 | ED50 at 180 min [4]: 2.4 mg/kg | Relative intestinal toxicity IUD50/ED50 (C) [5]: 3.8 | Analgesic ED50 [5]: 3.65 mg/kg | Therapeutical index LD50/ED50 (C) [5]: 3.4 | acute toxicity of indomethacin alone relative to combination with Na-salicylate [11]: 72 fold | Died animals No. [12, 15]: 33 No. | Ulcerous animals % [12, 15]: 100% | Ulcerous animals No. [12, 15]: 45 No. | ulcers in the intestines of the survivors ([12]; indomethacin only, 20 mg/kg for 3 days, orally): clearly visible ulcers appeared in the intestines of the survivors | mortality at 72 h ([12]; rat, in vivo, po, indomethacin 3 × 20 mg/kg p.o. alone, 3rd day, read-out: Died animals %): 73% | LD50 [6]: 12.5 mg/kg | selectivity ratio [8]: 5.2 | TD50 at 4 h [13]: 5 mg/kg | Oedema-inhibiting effect % ([2]; indomethacin 5 mg/kg p.o. alone): 40% | Oedema-inhibiting effect % ([2]; indomethacin 10 mg/kg p.o. alone): 45% | TD50 at 48 h [14]: 14 mg/kg

CCCCC1C(=O)N(c2ccccc2)N(c2ccccc2)C1=O [Phenylbutazone, 4-butyl-1,2-diphenyl-pyrazolidine-3,5-dione]
ulcerogenic side-effects when administered together with sodium salicylate [1]: can also be antagonized effectively | main antiphlogistic effects when administered together with sodium salicylate [2]: remain unchanged, or even the antiphlogistic effects of the two active agents are superimposed
